Measurements published in patent US20260234555A1 (priority 2022, published 2026).

Tested on: mouse salivary gland organoids

Structure (SMILES) | changes in the morphology and growth of the organoids | effect on the morphology and growth of the organoids
CN(C)C(=O)Oc1cccc([N+](C)(C)C)c1 [neostigmine, Neostigmine bromide] | no significant changes | 
CC(=O)OCC[N+](C)(C)C.[Cl-] [acetylcholine, Acetylcholine chloride] |  | no effect
